Measured values published in ChEMBL document CHEMBL1201862, “PubChem BioAssay data set” (2004).
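Test compounds were applied to cells in 96-well plates for 48 hours at 5 doses. The concentration for 50% growth inhibition is given as GI50.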 The source made the active and inactive calls. Cut-off read from the data, not from the text of the source: active = GI50 up to about 1.1 µM and inactive = higher.

Columns and labels:
Assay in all cases: NCI-60 cell line screen, 48 h
786-0 = system: 786-0
ACHN = system: ACHN
BT-549 = system: BT-549
Hs-578T = system: Hs-578T
LOX IMVI = system: LOX IMVI
MDA-MB-435 = system: MDA-MB-435
NCI-H522 = system: NCI-H522
PC-3 = system: PC-3
RXF 393 = system: RXF 393
SF-539 = system: SF-539
SK-MEL-2 = system: SK-MEL-2
SK-OV-3 = system: SK-OV-3
SN12C = system: SN12C
SNB-75 = system: SNB-75
UACC-62 = system: UACC-62
DMS-273 = system: DMS-273
KM-20L2 = system: KM-20L2
HOP-18 = system: HOP-18
M19-MEL = system: M19-MEL
SNB-78 = system: SNB-78

Measured: GI50

O=C(O)c1cc(-c2ccc3cc4c(cc3c2)OCO4)nc2ccccc12
inactive: 786-0 30.7 µM | ACHN 37.8 µM | BT-549 22.8 µM | Hs-578T 49.2 µM | LOX IMVI 29.3 µM | MDA-MB-435 85.3 µM | NCI-H522 35.3 µM | PC-3 14.1 µM | RXF 393 54 µM | SF-539 92.9 µM | SK-MEL-2 62.7 µM | SK-OV-3 44.7 µM | SN12C 20.8 µM | SNB-75 49.7 µM | UACC-62 23.5 µM

CCN(CC)C(=O)c1cc(OC(C)C)ccc1-c1c(C)cc(OC(C)C)c(OC)c1OC
inactive: ACHN 57.8 µM | DMS-273 41.6 µM | KM-20L2 74 µM | LOX IMVI 58.9 µM | NCI-H522 40 µM | RXF 393 43 µM | SF-539 92 µM | SK-MEL-2 46.7 µM | SK-OV-3 > 100 µM | SN12C 61.4 µM | UACC-62 51.8 µM

O=C1CN2C(Cl)(Cl)C2(c2ccccc2)c2cc(Cl)ccc2N1CC1CC1 (centres undefined)
inactive: ACHN 23.8 µM | DMS-273 25.5 µM | HOP-18 23.8 µM | KM-20L2 23.4 µM | LOX IMVI 17.3 µM | M19-MEL 35.4 µM | NCI-H522 17.2 µM | RXF 393 18.7 µM | SK-MEL-2 17.3 µM | SN12C 20.8 µM | SNB-75 25.2 µM

CC(=O)N/C(=C\c1ccc(Cc2nc3c([nH]2)C(=O)c2ccccc2C3=O)cc1)c1nc2c([nH]1)C(=O)c1ccccc1C2=O
inactive: 786-0 > 100 µM | ACHN > 100 µM | KM-20L2 > 100 µM | LOX IMVI > 100 µM | M19-MEL > 100 µM | NCI-H522 > 100 µM | RXF 393 > 100 µM | SF-539 > 100 µM | SK-MEL-2 > 100 µM | SK-OV-3 > 100 µM | SN12C > 100 µM | SNB-75 86.3 µM

O=C(NC1C/C(=N/O)c2c(Br)sc(Br)c21)C(F)(F)F (centres undefined)
inactive: 786-0 18.2 µM | ACHN 34 µM | BT-549 32.1 µM | Hs-578T 11.2 µM | LOX IMVI 25.5 µM | MDA-MB-435 47.2 µM | NCI-H522 26.1 µM | PC-3 13.9 µM | RXF 393 11.3 µM | SF-539 17.3 µM | SK-MEL-2 11.4 µM | SK-OV-3 47.6 µM | SN12C 21.2 µM | SNB-75 29.5 µM | UACC-62 16.9 µM

C=CCNC(=O)N(CCC)CCCCC(NC(C)=O)C(=O)NCc1ccccc1 (centres undefined)
inactive: 786-0 > 100 µM | ACHN > 100 µM | DMS-273 > 100 µM | HOP-18 72.1 µM | KM-20L2 > 100 µM | LOX IMVI > 100 µM | M19-MEL > 100 µM | NCI-H522 > 100 µM | RXF 393 > 100 µM | SF-539 > 100 µM | SK-MEL-2 > 100 µM | SK-OV-3 > 100 µM | SN12C > 100 µM | SNB-75 > 100 µM | UACC-62 > 100 µM

CC12CCCCC1C(=O)C2(Cl)Cl (centres undefined)
inactive: 786-0 1.83 µM | ACHN 2.51 µM | DMS-273 2.21 µM | LOX IMVI 2.64 µM | NCI-H522 1.89 µM | RXF 393 3.72 µM | SF-539 2.17 µM | SK-MEL-2 1.95 µM | SN12C 2.98 µM | SNB-75 3.34 µM | SNB-78 4.44 µM | UACC-62 2.2 µM

CC1(C)N=C(Oc2ccccc2)n2nccc2N1
inactive: 786-0 59.4 µM | ACHN > 100 µM | DMS-273 66.7 µM | HOP-18 > 100 µM | KM-20L2 > 100 µM | LOX IMVI 53.8 µM | M19-MEL > 100 µM | NCI-H522 40.9 µM | RXF 393 > 100 µM | SF-539 > 100 µM | SK-MEL-2 > 100 µM | SK-OV-3 > 100 µM | SN12C > 100 µM | SNB-75 > 100 µM | UACC-62 63.4 µM

O=C(N/N=C/C=C/c1ccccc1)[C@H](O)[C@@H](O)C(=O)N/N=C/C=C/c1ccccc1
inactive: ACHN > 100 µM | DMS-273 > 100 µM | KM-20L2 > 100 µM | LOX IMVI > 100 µM | M19-MEL > 100 µM | NCI-H522 > 100 µM | RXF 393 > 100 µM | SF-539 > 100 µM | SK-MEL-2 > 100 µM | SK-OV-3 > 10 µM | SN12C > 100 µM | SNB-78 > 100 µM | UACC-62 > 100 µM

CN(C)c1ccc(/C=C2/SC(=S)NC2=O)cc1
inactive: 786-0 > 100 µM | ACHN > 100 µM | BT-549 > 100 µM | Hs-578T > 100 µM | LOX IMVI > 100 µM | MDA-MB-435 > 100 µM | NCI-H522 > 100 µM | PC-3 > 100 µM | RXF 393 > 100 µM | SF-539 > 100 µM | SK-MEL-2 > 100 µM | SK-OV-3 29.1 µM | SN12C > 100 µM | SNB-75 95.3 µM | UACC-62 > 100 µM

Cc1cc2c(ccc[n+]2[O-])[n+]([O-])c1
inactive: ACHN > 100 µM | DMS-273 > 100 µM | KM-20L2 > 100 µM | M19-MEL > 100 µM | NCI-H522 > 100 µM | RXF 393 4.74 µM | SF-539 > 100 µM | SK-MEL-2 > 100 µM | SK-OV-3 > 100 µM | SN12C > 100 µM | SNB-75 > 100 µM | SNB-78 > 100 µM | UACC-62 > 100 µM

CCCCC1(N=[N+]=[N-])C(=O)c2cccc3c2N(CCC3)C1=O (centres undefined)
inactive: 786-0 > 100 µM | ACHN > 100 µM | BT-549 > 100 µM | Hs-578T > 100 µM | LOX IMVI > 100 µM | MDA-MB-435 > 100 µM | NCI-H522 > 100 µM | PC-3 > 100 µM | RXF 393 > 100 µM | SF-539 > 100 µM | SK-MEL-2 > 100 µM | SK-OV-3 > 100 µM | SN12C > 100 µM | SNB-75 > 100 µM | UACC-62 69.2 µM

Clc1ccc(-c2nnc(-c3nsc4ccccc34)o2)cc1
inactive: ACHN 25.1 µM | DMS-273 26.6 µM | KM-20L2 46.2 µM | LOX IMVI 40.1 µM | M19-MEL > 100 µM | RXF 393 38.3 µM | SF-539 20 µM | SK-MEL-2 28.5 µM | SN12C 36.6 µM | SNB-75 8.17 µM | SNB-78 46.2 µM | UACC-62 54 µM

O=C(O)c1ccc(NS(=O)(=O)Cc2ccccc2)cc1
inactive: 786-0 > 100 µM | ACHN > 100 µM | BT-549 > 100 µM | Hs-578T > 100 µM | LOX IMVI > 100 µM | MDA-MB-435 > 100 µM | NCI-H522 > 100 µM | PC-3 > 100 µM | RXF 393 > 100 µM | SF-539 > 100 µM | SK-MEL-2 > 100 µM | SK-OV-3 > 100 µM | SN12C > 100 µM | SNB-75 > 100 µM | UACC-62 > 100 µM

COCCO [2-METHOXYETHANOL]
inactive: KM-20L2 > 100 µM | LOX IMVI > 100 µM | NCI-H522 > 100 µM | RXF 393 > 100 µM | SF-539 > 100 µM | SK-MEL-2 > 100 µM | SK-OV-3 > 100 µM | SN12C > 100 µM | SNB-75 > 64.6 µM | UACC-62 > 100 µM
